Reference: ChEMBL document CHEMBL6109033, “Design and synthesis of novel antioxidants derived from chalcones and their protective effects on cardiomyocytes by activating Nrf2/HO-1 pathway” (Bioorg Med Chem Lett, 2025)
The source made the active and inactive calls. The calls are words filed in the database; no cut-off is given here.

How the values were obtained:
[1] = tested on: H9c2; assay: Antioxidant activity against H2O2-induced oxidative stress in rat H9c2 cells assessed as cell viability at 5 uM pretreated with compounds for 18 hrs followed by H2O2 stimulation for 24 hrs by MTT assay; assay type: functional, cell-based; settings: time 42.0 hrs
[2] = tested on: H9c2; assay: […] of H2O2-induced oxidative stress in rat H9c2 cells assessed as decrease in MDA level pretreated with compounds for 18 hrs followed by H2O2 stimulation for 2 hrs by MDA assay; assay type: functional, cell-based; settings: dose 1.25-5 µM, time 20.0 hrs
[3] = tested on: H9c2; assay: Cytoprotective activity against H2O2-induced oxidative stress in rat H9c2 cells assessed as inhibition of cell viability pretreated with compounds for 18 hrs followed by H2O2 stimulation for 24 hrs by MTT assay; assay type: functional, cell-based; settings: dose 0.625-5 µM, time 42.0 hrs
[4] = tested on: H9c2; assay: Inhibition of H2O2-induced oxidative stress in rat H9c2 cells assessed as reduction intracellular ROS level pretreated with compounds for 18 hrs followed by H2O2 stimulation for 2 hrs by DCFH-DA based fluorescence microscopic analysis; assay type: functional, cell-based; settings: dose 1.25-5 µM, time 20.0 hrs
[5] = tested on: H9c2; assay: Cytoprotective activity against H2O2-induced rat H9c2 cells assessed as reversal of colony formation inhibition by colony formation assay; assay type: functional, cell-based; settings: dose 1.25-5 µM
[6] = tested on: H9c2; assay: Cytoprotective activity against high glucose-induced oxidative stress in rat H9c2 cells assessed as inhibition of cell viability pretreated with compounds for 18 hrs followed by H2O2 stimulation for 24 hrs by MTT assay; assay type: functional, cell-based; settings: dose 0.625-5 µM, time 42.0 hrs
[7] = tested on: H9c2; assay: Activation of Nrf2 nuclear translocation in rat H9c2 cells assessed as increase in accumulation of Nrf2 in nucleus at 10 uM incubated for 6 hrs by DAPI staining based fluorescence microscopic analysis; assay type: cell-based; settings: filed as activator
[8] = tested on: H9c2; assay: Upregulation of HO-1 protein expression in rat H9c2 cells incubated for 18 hrs by Western blot analysis; assay type: functional, cell-based; settings: dose 0.625-2.5 µM
[9] = tested on: H9c2; assay: Downregulation of Nrf2 expression in rat H9c2 cells transfected with Nrf2 siRNA at 0.625 uM pretreated with compound for 18 hrs followed by H2O2 stimulation for 24 hrs by Western blot analysis; assay type: functional, cell-based; settings: time 42.0 hrs

In the case of `COc1ccc2c(c1)C1(C(=O)N2)[C@@H](C(=O)c2ccc(O)c(O)c2)[C@@H](c2ccccc2OC)CN1C` (some centres undefined), the Activity [1] is reported as “Active”, the Activity [2] is reported as “Dose-dependent-effect” and the Activity [3] is reported as “Dose-dependent-effect”. The inhibition [4] was “Dose-dependent-effect”, the Activity [5] was “Dose-dependent-effect” and the Activity [6] was “Dose-dependent-effect”.
With `COc1ccc(OC)c([C@H]2CN(C)C3(C(=O)Nc4ccc(OC)cc43)[C@H]2C(=O)c2ccc(O)c(O)c2)c1` (some centres undefined) the Activity [1] was “Active”.
With `COc1ccc(OC)c(/C=C/C(=O)c2ccc(O)c(O)c2)c1` the Activity [1] was “Active”.
`COc1ccc(OC)c([C@H]2CN(C)C3(C(=O)Nc4ccc(Cl)cc43)[C@H]2C(=O)c2ccc(O)c(O)c2)c1` (some centres undefined) was tested, and the Activity [1] was “Active”.
`COc1ccccc1[C@H]1CN(C)C2(C(=O)Nc3ccccc32)[C@H]1C(=O)c1ccc(O)c(O)c1` (some centres undefined) was tested, and the Activity [1] was “Active”.
For `COc1ccccc1[C@H]1CN(C)C2(C(=O)Nc3ccc(F)cc32)[C@H]1C(=O)c1ccc(O)c(O)c1` (some centres undefined), the Activity [1] was “Active”.
In the case of `COc1ccc(OC)c([C@H]2CN(C)C3(C(=O)Nc4ccccc43)[C@H]2C(=O)c2ccc(O)c(O)c2)c1` (some centres undefined), the Activity [1] is reported as “Active”, the Activity [7] is reported as “Active” and the Activity [2] is reported as “Dose-dependent-effect”. For the same compound, the Activity [8] was “Dose-dependent-effect”, the Activity [3] was “Dose-dependent-effect” and the inhibition [4] was “Dose-dependent-effect”. The Activity [5] was “Dose-dependent-effect”, the Activity [6] was “Dose-dependent-effect” and the Activity [9] was “Active”.
In the case of `COc1ccccc1[C@H]1CN(C)C2(C(=O)Nc3ccc(Cl)cc32)[C@H]1C(=O)c1ccc(O)c(O)c1` (some centres undefined), the Activity [1] is reported as “Active”.
In the case of `COc1ccc(OC)c([C@H]2CN(C)C3(C(=O)Nc4ccc(C)cc43)[C@H]2C(=O)c2ccc(O)c(O)c2)c1` (some centres undefined), the Activity [1] is reported as “Active”.
For `COc1ccccc1[C@H]1CN(C)C2(C(=O)Nc3ccc(C)cc32)[C@H]1C(=O)c1ccc(O)c(O)c1` (some centres undefined), the Activity [1] was “Active”.
For `COc1ccccc1[C@H]1CN(C)[C@]2(C(=O)c3cccc4cccc2c34)[C@H]1C(=O)c1ccc(O)c(O)c1`, the Activity [1] was “Active”.
For `COc1ccccc1[C@H]1CN(C)C2(C(=O)Nc3ccc(Br)cc32)[C@H]1C(=O)c1ccc(O)c(O)c1` (some centres undefined), the Activity [1] was “Active”.
For `COc1ccccc1/C=C/C(=O)c1ccc(O)c(O)c1`, the Activity [1] was “Active”.
With `COc1ccc(OC)c([C@H]2CN(C)C3(C(=O)Nc4ccc(F)cc43)[C@H]2C(=O)c2ccc(O)c(O)c2)c1` (some centres undefined) the Activity [1] was “Active”.
`COc1ccc(OC)c([C@H]2CN(C)C3(C(=O)Nc4ccc(Br)cc43)[C@H]2C(=O)c2ccc(O)c(O)c2)c1` (some centres undefined) was tested, and the Activity [1] was “Active”.
`COc1ccc(OC)c([C@H]2CN(C)[C@]3(C(=O)c4cccc5cccc3c45)[C@H]2C(=O)c2ccc(O)c(O)c2)c1` was tested, and the Activity [1] was “Active”.
